Laboratory results taken from PMC4519859, “Synthesis and Biological Evaluation of Novel Dehydroabietic Acid Derivatives Conjugated with Acyl-Thiourea Peptide Moiety as Antitumor Agents” (International Journal of Molecular Sciences, 2015).

Legend:
Format in all cases: cell-based
[1] = system: MGC-803; assay: MTT cytotoxicity assay, MGC-803; conditions: Homo sapiens, 48 h, mean ± SD, three independent experiments
Procedure: (§1) The in vitro cytotoxic potency of DHAA acyl-thiourea derivatives 8a–8o and 9a–9o were evaluated by 3-(4,5-dimethylthiazol-2-yl)-2,5-diphenyltetrazolium bromide (MTT) assay against HeLa, SK-OV-3 and MGC-803 tumor cell lines, with 5-FU as the positive control.
(§2) General procedure for cytotoxic evaluation in vitro: HeLa, HepG2, SK-OV-3 and MGC-803 cells were seeded into 96-well microculture plates and allowed to adhere for 24 h, respectively. After cells were exposed to compounds at concentrations from 100 to 0.01 μM for 48 h, medium was aspirated and replenished with complete medium. IC50 was evaluated by MTT tetrazolium dye assay. Each experiment was performed three times; Statistical analysis: All statistical analysis was performed with SPSS Version 10 (SPSS, Chicago, IL, USA). Data was analyzed by one-way ANOVA. Mean separations were performed using the least significant difference method. Each experiment was replicated thrice, and all experiments yielded similar results. Measurements from all the replicates were combined, and treatment effects were analyzed.

[2] = system: SK-OV-3; assay: MTT cytotoxicity assay, SK-OV-3; conditions: Homo sapiens, 48 h, mean ± SD, three independent experiments
Procedure: as §1, §2

[3] = system: HeLa; assay: MTT cytotoxicity assay, HeLa; conditions: Homo sapiens, 48 h, mean ± SD, three independent experiments
Procedure: as §1, §2

[4] = system: HL-7702; assay: MTT cytotoxicity assay, HL-7702 normal cells; conditions: L02, 48 h, normal human cells, mean ± SD, three independent experiments
Procedure: [The source words this procedure for another cell line and reports this cell line under the same test.] as §1, §2

O=c1[nH]cc(F)c(=O)[nH]1 [Compound 5-FU, 5-fluorouracil, reference compound]
IC50 [1]: 34.9 ± 1.75 µM
IC50 [2]: 30.2 ± 1.13 µM
IC50 [3]: 36.6 ± 1.55 µM

CC(C)c1ccc2c(c1)CCC1[C@](C)(C(=O)NC(=S)N[C@H](C)C(=O)Nc3ccccc3)CCC[C@]21C (stereo partly drawn) [Compound 8a, (1R,4aS)-7-Isopropyl-1,4a-dimethyl-N-(((R)-1-oxo-1-(phenylamino)propan-2-yl)carbamothioyl)-1,2,3,4,4a,9,10,10a-octahydrophenanthrene-1-carboxamide]
IC50 [1]: 28.5 ± 1.79 µM
IC50 [2]: 26.5 ± 2.53 µM
IC50 [4]: 47.6 ± 2.43 µM
IC50 [3]: 31.1 ± 2.13 µM

Cc1ccccc1NC(=O)[C@@H](C)NC(=S)NC(=O)[C@]1(C)CCC[C@]2(C)c3ccc(C(C)C)cc3CCC12 (stereo partly drawn) [Compound 8b, (1R,4aS)-7-Isopropyl-1,4a-dimethyl-N-(((R)-1-oxo-1-(o-tolylamino)propan-2-yl)carbamothioyl)-1,2,3,4,4a,9,10,10a-octahydrophenanthrene-1-carboxamide]
IC50 [1]: 19.2 ± 1.66 µM
IC50 [2]: 42.8 ± 1.42 µM
IC50 [4]: 52.5 ± 1.25 µM
IC50 [3]: 29.2 ± 2.43 µM

Cc1ccc(NC(=O)[C@@H](C)NC(=S)NC(=O)[C@]2(C)CCC[C@]3(C)c4ccc(C(C)C)cc4CCC23)cc1 (stereo partly drawn) [Compound 8c, (1R,4aS)-7-Isopropyl-1,4a-dimethyl-N-(((R)-1-oxo-1-(p-tolylamino)propan-2-yl)carbamothioyl)-1,2,3,4,4a,9,10,10a-octahydrophenanthrene-1-carboxamide]
IC50 [1]: 24.9 ± 1.64 µM
IC50 [2]: 50.9 ± 4.11 µM
IC50 [4]: 61.7 ± 3.41 µM
IC50 [3]: 38.7 ± 3.65 µM

CC(C)c1ccc2c(c1)CCC1[C@](C)(C(=O)NC(=S)N[C@H](C)C(=O)Nc3ccccc3Cl)CCC[C@]21C (stereo partly drawn) [Compound 8d, (1R,4aS)-N-(((R)-1-((2-Chlorophenyl)amino)-1-oxopropan-2-yl)carbamothioyl)-7-isopropyl-1,4a-dimethyl-1,2,3,4,4a,9,10,10a-octahydrophenanthrene-1-carboxamide]
IC50 [1]: 20.6 ± 1.57 µM
IC50 [2]: 48.3 ± 4.21 µM
IC50 [4]: 69.4 ± 4.23 µM
IC50 [3]: 19.7 ± 1.23 µM

CC(C)c1ccc2c(c1)CCC1[C@](C)(C(=O)NC(=S)N[C@H](C)C(=O)Nc3ccc(Cl)cc3)CCC[C@]21C (stereo partly drawn) [Compound 8e, (1R,4aS)-N-(((R)-1-((4-Chlorophenyl)amino)-1-oxopropan-2-yl)carbamothioyl)-7-isopropyl-1,4a-dimethyl-1,2,3,4,4a,9,10,10a-octahydrophenanthrene-1-carboxamide]
IC50 [1]: 21.7 ± 1.69 µM
IC50 [2]: 36.1 ± 3.28 µM
IC50 [4]: 57.7 ± 3.66 µM
IC50 [3]: 36.1 ± 3.31 µM

COc1ccccc1NC(=O)[C@@H](C)NC(=S)NC(=O)[C@]1(C)CCC[C@]2(C)c3ccc(C(C)C)cc3CCC12 (stereo partly drawn) [Compound 8f, (1R,4aS)-7-Isopropyl-N-(((R)-1-((2-methoxyphenyl)amino)-1-oxopropan-2-yl)carbamothioyl)-1,4a-dimethyl-1,2,3,4,4a,9,10,10a-octahydrophenanthrene-1-carboxamide]
IC50 [1]: 17.9 ± 1.73 µM
IC50 [2]: 23 ± 3.01 µM
IC50 [4]: 44.7 ± 3.34 µM
IC50 [3]: 28.1 ± 2.11 µM

COc1ccc(NC(=O)[C@@H](C)NC(=S)NC(=O)[C@]2(C)CCC[C@]3(C)c4ccc(C(C)C)cc4CCC23)cc1 (stereo partly drawn) [Compound 8g, (1R,4aS)-7-Isopropyl-N-(((R)-1-((4-methoxyphenyl)amino)-1-oxopropan-2-yl)carbamothioyl)-1,4a-dimethyl-1,2,3,4,4a,9,10,10a-octahydrophenanthrene-1-carboxamide]
IC50 [1]: 18.6 ± 1.72 µM
IC50 [2]: 26.8 ± 2.47 µM
IC50 [4]: 43.6 ± 2.43 µM
IC50 [3]: 27.4 ± 2.43 µM

CC(C)c1ccc2c(c1)CCC1[C@](C)(C(=O)NC(=S)N[C@H](C)C(=O)Nc3ccccc3F)CCC[C@]21C (stereo partly drawn) [Compound 8h, (1R,4aS)-N-(((R)-1-((2-Fluorophenyl)amino)-1-oxopropan-2-yl)carbamothioyl)-7-isopropyl-1,4a-dimethyl-1,2,3,4,4a,9,10,10a-octahydrophenanthrene-1-carboxamide]
IC50 [1]: 26.1 ± 2.37 µM
IC50 [2]: 31.8 ± 2.36 µM
IC50 [4]: 53.5 ± 2.35 µM
IC50 [3]: 23.3 ± 1.55 µM

CC(C)c1ccc2c(c1)CC[C@H]1[C@](C)(C(=O)O)CCC[C@]21C [DHA, dehydroabietic acid]
IC50 [1]: > 100 µM
IC50 [2]: 87.5 ± 4.12 µM
IC50 [3]: 30.4 ± 3.45 µM
